For data set [1], the system named is histamine-induced bronchoconstriction in the guinea pig. The experiment in a line: BD: bronchodilator activity against histamine-induced bronchoconstriction in the guinea pig. The following applies: for lethal / bronchodilator effectiveness, in words / onset and duration of action, in words: guinea pig; for inhibition in vivo at 10 mg/kg / inhibition in vivo at 40 mg/kg / inhibition in vivo at 80 mg/kg / inhibition in vivo at 20 mg/kg / inhibition in vivo at 150 mg/kg / inhibition in vivo at 100 mg/kg / inhibition in vivo at 15 mg/kg / inhibition in vivo at 60 mg/kg: Cavia porcellus, po, read-out: BD (guinea pig), % protection; for bronchodilator effectiveness, in words / onset and duration of action, in words: comparison with corresponding compound. The text has this:
BD Bronchodilator activity evaluated against histamine-induced bronchoconstriction in the guinea pig, and expressed as % protection at the stated time interval (in minutes and hours) post-drug against histamine agonist. Doses are expressed in milligrams per kilogram of body weight (mpk) per os (po) or intraperitoneally (ip).
A modification of the method of Siegmund. O.H., et al., J. Pharmacol. and Exp. Therap. 90:254-9, 1947, is used. Healthy guinea pigs weighing from 250 to 300 grams are placed four at a time and separated by wiring screening in an 11 liter plastic chamber, at the time of peak activity following drug administration. The challenge consists of histamine diphosphate (1% solution) aerosolized in a de Vilbiss -40 nebulizer at 200 mm Hg. Times for prostration are recorded.
Per cent protection is calculated as follows: [formula] wherein the times are measured in seconds.
In interpreting the BD data it should be noted that a dose giving less than 40-50% protection is not considered useful. Differences in percent protection of less than 10% are probably not significant.

The nature of the next data set: LD50 mouse. The class given is in vivo. The following applies: in vivo, po. As for the experimental part: (§1) The LD50 was determined in three species, the mouse (male, 18-25 g), the albino rat (female, 150-200 g) and the albino guinea pig (male 180-280 g) by oral administration and in the albino rat by intraperitoneal administration. The animals are fasted overnight prior to testing. Six groups of ten animals are used; five groups are dosed with the test substance, the sixth group serves as a control and receives the drug vehicle at the highest test concentration. The compounds were administered in a 0.5% gum tragacanth solution in distilled water using a constant logarithmic increment in dose. Dose volume ranged from […].
(§2) The animals were housed five per cage (rat and guinea pig) or ten per cage (mouse) with free access to food and water. The number of dead animals was recorded daily for five consecutive days. The total mortality per group of ten for each dose level was recorded and LD50 with Confidence Limits calculated according to the method described by Weil, C.

A further data set is described as follows: in vivo. The following applies: in vivo; rat, po. The procedure:
as §1, §2

For data set [2], the system named is antigen-induced bronchconstriction in rats sensitized with N. brasliensis. The experiment in a line: AA: antiallergy (anti-anaphylactic) activity against antigen-induced bronchoconstriction in sensitized rats.
Text: The animals are subdivided into control and test groups. Test animals receive a drug either orally, intraperitoneally or intravenously and are challenged with intravenous antigen at fixed time intervals after dosing. Antigen-induced increases in tracheal pressure are monitored and reflect the extent of bronchoconstriction.
The test system of data set [3] is guinea pig tracheal chain preparation. Description: SP: spasmolytic activity in vitro, guinea pig tracheal chain preparation. The following applies: Cavia porcellus, read-out: SP in vitro C, molar concentration required to produce maximum relaxation. An excerpt:
SP Spasmolytic activity evaluated in vitro using guinea pig tracheal chain preparation, and expressed as the molar (M) concentration required to produce maximum relaxation. The method used in that of Castillo and de Beer, J. Pharmac. Expt. Therap. 90, 104, 1947.

Setting [4] is: Rattus norvegicus, ip, 1 h, read-out: AA (rat), % protection.

Read-outs that look alike come from different tables or passages of the source.

As to `COC(=O)n1c(C)nc2c1c(=O)n(C)c(=O)n2CCC(C)C` [Compound 4505, 1,8-dimethyl-3-isopentylxanthine-7-carboxylic acid, methyl ester], in data set [1] (80 mpK po), the lethal is recorded as 3/5.

Consider `CCC(C)Cn1c(=O)n(C)c(=O)c2[nH]c(C)nc21` (stereo not shown) [Compound 4383, 1,8-dimethyl-3-(2-methyl-1-butyl)xanthine], for which the 50% lethal dose (LD50) (in general, the dose expected to kill half of the subjects tested) was 60.6 mg/kg in “LD50 mouse” and 887 mg/kg in “in vivo”. Moreover, the “BD (guinea pig), % protection” value in data set [1] (10 mpK po, 30') turned out to be 35%; in data set [1] (20 mpK po, 4h) it was 100%; in data set [1] (20 mpK po, 6h), 97%. Further, the inhibition in vivo at 10 mg/kg in data set [1] (1 h) was found to be 63%.

Take `CCc1nc2c(c(=O)n(CC)c(=O)n2CC(C)CC)n1C(=O)OC` (racemic) [Compound 4498, DL-1,8-diethyl-3-(2-methyl-1-butyl)xanthine-7-carboxylic acid, methyl ester]: the inhibition in vivo at 40 mg/kg was 15% in data set [1] (1 h) and 38% in data set [1] (6 h). Also, the inhibition in vivo at 80 mg/kg in data set [1] (1 h) came out at 63%; in data set [1] (6 h) it was 79%.

As for `CCCC(C)Cn1c(=O)n(C)c(=O)c2c1ncn2C(=O)OC` (stereo not shown) [Compound 4377], in data set [1] (1 h), the inhibition in vivo at 20 mg/kg turned out to be 64% and the inhibition in vivo at 80 mg/kg was found to be 72%. Besides, in data set [1] (4 h), the inhibition in vivo at 80 mg/kg was determined as 0%.

Regarding `CCC(C)Cn1c(=O)n(CC)c(=O)c2c1nc(C)n2C(=O)OC` (racemic) [Compound 4494, DL-1-ethyl-3-(2-methyl-1-butyl)-8-methylxanthine-7-carboxylic acid, methyl ester], in data set [1] (1 h), the inhibition in vivo at 10 mg/kg is 0% and the inhibition in vivo at 40 mg/kg amounted to 9%. Also, in data set [1] (6 h), the inhibition in vivo at 10 mg/kg is 49% and the inhibition in vivo at 40 mg/kg stood at 80%. In data set [1] (80 mpK po), the lethal is 2/2.

For the compound `COC(=O)n1cnc2c1c(=O)n(C)c(=O)n2C` [Compound 4260, 1,3-dimethylxanthine-7-carboxylic ester, methyl ester], the inhibition in vivo at 75 mg/kg in data set [2] (setting [4]) was 82%. Besides, the inhibition in vivo at 80 mg/kg amounted to 99% in data set [1] (0.5 h); 100% in data set [1] (1 h); 86% in data set [1] (2 h); 95% in data set [1] (4 h); 0% in data set [1] (6 h). In addition, the “bronchodilator effectiveness, in words” value in data set [1] was “clearly superior to theophylline at the same dose (80 mpK)”; in data set [1] (listed as 1,3-dimethyl-7-carbomethoxyxanthine), “significantly more effective than theophylline itself”. For the same compound, the “onset and duration of action, in words” value in data set [1] is “more potent, with both faster onset and longer duration of action”. Also, in data set [3], the EC (maximum relaxation) is 50000 µM.

`Cc1nc2c([nH]1)c(=O)n(C)c(=O)n2C` [Compound 4296, 1,3,8-trimethylxanthine]: the inhibition in vivo at 75 mg/kg in data set [2] (setting [4]) stood at 49%. For the same compound, the inhibition in vivo at 150 mg/kg was found to be 68% in data set [1] (0.5 h); 80% in data set [1] (1 h); 71% in data set [1] (2 h); 79% in data set [1] (4 h); 86% in data set [1] (6 h); 85% in data set [1] (10 h). Further, the inhibition in vivo at 100 mg/kg in data set [1] (1 h) amounted to 53%; in data set [1] (4 h), 45%; in data set [1] (6 h) it was 43%; in data set [1] (10 h) it was 23%.

Take `CCC(C)Cn1c(=O)n(C)c(=O)c2c1ncn2C(=O)OC` (stereo not shown) [Compound 4380, 1-methyl-3-(2-methyl-1-butyl)xanthine-7-carboxylic acid, methyl ester]: the inhibition in vivo at 5 mg/kg in data set [2] (Rattus norvegicus, po, 1 h, read-out: AA (rat), % protection) came out at 66%. For the same compound, the “BD (guinea pig), % protection” value in data set [1] (20 mpK po, 1h) was 64%. Moreover, the inhibition in vivo at 20 mg/kg in data set [1] (1 h) came out at 64%. For the same compound, the inhibition in vivo at 40 mg/kg was found to be 99% in data set [1] (1 h), 57% in data set [1] (4 h) and 12% in data set [1] (6 h). In data set [3], the EC (maximum relaxation) is 1430 µM.

With `CCCCCn1c(=O)n(C)c(=O)c2c1nc(C)n2C(=O)OC` [Compound 4507, 1,8-dimethyl-3-n-pentylxanthine-7-carboxylic acid, methyl ester], in data set [1] (1 h), the inhibition in vivo at 10 mg/kg was 26%, the inhibition in vivo at 20 mg/kg is 52% and the inhibition in vivo at 40 mg/kg amounted to 100%. In addition, the inhibition in vivo at 40 mg/kg in data set [1] (6 h) was 63%. Further, the lethal in data set [1] (80 mpK po) is listed as 2/2.

Turning to `CC(C)Cn1c(=O)n(C)c(=O)c2[nH]cnc21` [Compound 4258, 1-methyl-3-(isobutyl)xanthine], the “AA (rat), toxicity” value in data set [2] (2.0 mpK ip, 1h) is listed as “tox”. In addition, in data set [2] (setting [4]), the inhibition in vivo at […] amounted to 79%. Moreover, the results for the inhibition in vivo at 15 mg/kg in data set [1] (0.5 h) and in data set [1] (1 h) were 45% and 75%, respectively. Moreover, in data set [1] (25 mpK po), the lethal is reported as 2/4.

For the compound `CCCOC(=O)n1c(C)nc2c1c(=O)n(C)c(=O)n2CC(C)CC` (racemic) [Compound 4488, DL-1,8-dimethyl-3-(2-methyl-1-butyl)xanthine-7-carboxylic acid, n-propyl ester], in data set [1] (1 h), the inhibition in vivo at 10 mg/kg was 24%, the inhibition in vivo at 20 mg/kg was 78% and the inhibition in vivo at 40 mg/kg came to 100%. Also, in data set [1] (6 h), the inhibition in vivo at 10 mg/kg came out at 44%, the inhibition in vivo at 20 mg/kg was 68% and the inhibition in vivo at 40 mg/kg is 89%. Besides, the lethal in data set [1] (80 mpK po) is on record as 1/4.

On to `CCc1nc2c(c(=O)n(C)c(=O)n2CC(C)CC)n1C(=O)OC` (racemic) [Compound 4491, DL-1-methyl-3-(2-methyl-1-butyl)-8-ethyl-xanthine-7-carboxylic acid, methyl ester], for which, in data set [1] (1 h), the inhibition in vivo at 10 mg/kg was 25% and the inhibition in vivo at 40 mg/kg turned out to be 52%.

As to `COC(=O)n1c(C)nc2c1c(=O)n(C)c(=O)n2C` [Compound 4378, 1,3,8-trimethylxanthine-7-carboxylic acid, methyl ester], in data set [2] (setting [4]), the inhibition in vivo at 75 mg/kg came to 54%. Also, the inhibition in vivo at 60 mg/kg is 96% in data set [1] (1 h), 95% in data set [1] (4 h) and 89% in data set [1] (6 h). Besides, the “onset and duration of action, in words” value in data set [1] was “effective at lower doses and for longer duration”. In addition, the EC (maximum relaxation) in data set [3] came to 100000 µM.

Turning to `CCOC(=O)n1c(C)nc2c1c(=O)n(C)c(=O)n2CC(C)CC` (racemic) [Compound 4477, DL-1,8-dimethyl-3-(2-methyl-1-butyl)xanthine-7-carboxylic acid, ethyl ester], the inhibition in vivo at 10 mg/kg is 47% in data set [1] (0.5 h), 87% in data set [1] (1 h) and 50% in data set [1] (6 h).

For the compound `COC(=O)n1cnc2c1c(=O)n(C)c(=O)n2CC(C)C` [Compound 4274, 1-methyl-3-(isobutyl)xanthine-7-carboxylic acid, methyl ester], in data set [2] (setting [4]), the inhibition in vivo at 5 mg/kg was 74%. Also, the inhibition in vivo at 15 mg/kg amounted to 92% in data set [1] (0.5 h), 87% in data set [1] (1 h), 64% in data set [1] (2 h) and 18% in data set [1] (4 h). Further, the lethal in data set [1] (40 mpK po) was 1/6. Moreover, the “bronchodilator effectiveness, in words” value in data set [1] is reported as “greater protection than 4258 at equal doses”. For the same compound, in data set [3], the EC (maximum relaxation) is 500 µM.

Take `CCCC(C)Cn1c(=O)n(C)c(=O)c2c1nc(C)n2C(=O)OC` (racemic) [Compound 4515, DL-1,8-dimethyl-3-(2-methyl-1-pentyl)xanthine-7-carboxylic acid, methyl ester]: in data set [1] (1 h), the inhibition in vivo at 20 mg/kg is 7% and the inhibition in vivo at 40 mg/kg worked out at 100%.
